# Test results published in ChEMBL document CHEMBL5236573, “Development of benzodioxine-heteroarylpiperazines as highly potent and selective α2c antagonists” (Bioorg Med Chem Lett, 2022).
# Tested on: not listed separately
# Experiment: Metabolic stability in rat hepatocytes assessed as clearance per 10^6 cells at 1 uM
# Type: ADME, cell-based, Hepatocyte
# Conditions: read-out: CLH
row,hepatocyte CLint at 1 µM,Compound
1,29.3 µL/min/1e6 cells,c1ccc2c(c1)OC[C@H](CN1CCN(c3nsnc3Nc3ccncn3)CC1)O2
2,73.7 µL/min/1e6 cells,CC1CCN(c2nsnc2N2CCN(C[C@H]3COc4ccccc4O3)CC2)C1=O (some centres undefined)
3,1.8 µL/min/1e6 cells,O=C1NCCN1c1nsnc1N1CCN(C[C@H]2COc3ccccc3O2)CC1

# Tested on: not listed separately
# Experiment: Metabolic stability in human hepatocytes assessed as clearance per 10^6 cells at 1 uM
# Type: ADME, cell-based, Hepatocyte
# Conditions: read-out: CLH
row,hepatocyte CLint at 1 µM,Compound
1,14.2 µL/min/1e6 cells,c1ccc2c(c1)OC[C@H](CN1CCN(c3nsnc3Nc3ccncn3)CC1)O2
2,6.3 µL/min/1e6 cells,CC1CCN(c2nsnc2N2CCN(C[C@H]3COc4ccccc4O3)CC2)C1=O (some centres undefined)
3,1.8 µL/min/1e6 cells,O=C1NCCN1c1nsnc1N1CCN(C[C@H]2COc3ccccc3O2)CC1

# Biological target: T1, Alpha-2A adrenergic receptor (Homo sapiens) (UniProt P08913)
# T1 sequence (whole entry): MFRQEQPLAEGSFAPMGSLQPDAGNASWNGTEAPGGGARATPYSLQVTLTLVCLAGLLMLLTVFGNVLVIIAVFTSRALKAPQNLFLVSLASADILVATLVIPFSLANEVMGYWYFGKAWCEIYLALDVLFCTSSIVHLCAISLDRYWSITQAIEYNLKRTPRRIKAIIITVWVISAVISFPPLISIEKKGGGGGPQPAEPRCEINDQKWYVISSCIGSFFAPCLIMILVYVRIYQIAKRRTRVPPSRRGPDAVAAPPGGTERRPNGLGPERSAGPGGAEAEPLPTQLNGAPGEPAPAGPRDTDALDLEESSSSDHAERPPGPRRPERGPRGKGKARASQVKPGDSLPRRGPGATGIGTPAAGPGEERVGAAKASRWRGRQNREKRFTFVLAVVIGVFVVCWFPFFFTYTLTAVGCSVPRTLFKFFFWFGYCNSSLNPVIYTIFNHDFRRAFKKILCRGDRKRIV
# Experiment: Antagonist activity at alpha2a-adrenoceptor (unknown origin) assessed as reduction in adrenaline-induced response by measuring equilibrium binding constant
# Conditions: filed as antagonist
row,Kb,Compound
1,449 nM,CN1CCN(c2nsnc2N2CCN(C[C@H]3COc4ccccc4O3)CC2)C1=O
2,130 nM,COCc1cccnc1N1CCN(C[C@H]2COc3ccccc3O2)CC1 [ORM-13070]
3,459 nM,c1ccc2c(c1)OC[C@H](CN1CCN(c3nsnc3Nc3ccncn3)CC1)O2
4,44.9 nM,O=C1CCCN1c1cccnc1N1CCN(C[C@H]2COc3ccccc3O2)CC1
5,449 nM,CC1CCN(c2nsnc2N2CCN(C[C@H]3COc4ccccc4O3)CC2)C1=O (some centres undefined)
6,449 nM,O=C1NCCN1c1nsnc1N1CCN(C[C@H]2COc3ccccc3O2)CC1

# Tested on: not listed separately
# Experiment: Unbound Cmax in rat plasma at 1 mg/kg, po by rapid equilibrium dialysis method
# Type: ADME, organism-based
# Conditions: in vivo
row,fCmax,Compound
1,< 0.06 nM,Oc1cccc([C@H]2CCCN(C[C@H]3COc4ccccc4O3)C2)c1

# Tested on: not listed separately
# Experiment: Unbound fraction in rat brain at 1 mg/kg, po
# Type: ADME, organism-based
# Conditions: not given
row,fraction unbound,Compound
1,< 0.01,Oc1cccc([C@H]2CCCN(C[C@H]3COc4ccccc4O3)C2)c1

# Tested on: not listed separately
# Experiment: Solubility of the compound in pH 7.4 buffer
# Type: physicochemical
# Conditions: not given
row,solubility,Compound
1,176 µM,COCc1cccnc1N1CCN(C[C@H]2COc3ccccc3O2)CC1 [ORM-13070]
2,395 µM,CC1CCN(c2nsnc2N2CCN(C[C@H]3COc4ccccc4O3)CC2)C1=O (some centres undefined)

# Species on record: Homo sapiens
# Experiment: Selectivity index, ratio of Kb for antagonist activity at alpha2a-adrenoceptor (unknown origin) to Kb for antagonist activity at alpha2c-adrenoceptor (unknown origin)
# Conditions: not given
row,Ratio,Compound
1,4.15,CN1CCN(c2nsnc2N2CCN(C[C@H]3COc4ccccc4O3)CC2)C1=O
2,4330,COCc1cccnc1N1CCN(C[C@H]2COc3ccccc3O2)CC1 [ORM-13070]
3,45900,c1ccc2c(c1)OC[C@H](CN1CCN(c3nsnc3Nc3ccncn3)CC1)O2
4,4490,O=C1CCCN1c1cccnc1N1CCN(C[C@H]2COc3ccccc3O2)CC1
5,11200,CC1CCN(c2nsnc2N2CCN(C[C@H]3COc4ccccc4O3)CC2)C1=O (some centres undefined)
6,5930,O=C1NCCN1c1nsnc1N1CCN(C[C@H]2COc3ccccc3O2)CC1

# Tested on: not listed separately
# Experiment: AUC (0 to 6 hrs) in rat brain at 1 mg/kg, po
# Type: ADME, organism-based
# Design: dose 1 mg/kg, route po
# Conditions: not given
row,AUC(0-t),Compound
1,14 ng·h/mL,Oc1cccc([C@H]2CCCN(C[C@H]3COc4ccccc4O3)C2)c1

# Tested on: not listed separately
# Experiment: Lipophilicity, logD of the compound
# Type: physicochemical
# Conditions: octanol/water
row,logD,Compound
1,3.3,COCc1cccnc1N1CCN(C[C@H]2COc3ccccc3O2)CC1 [ORM-13070]
2,2.8,CC1CCN(c2nsnc2N2CCN(C[C@H]3COc4ccccc4O3)CC2)C1=O (some centres undefined)

# Tested on: not listed separately
# Experiment: Unbound Cmax in rat brain at 1 mg/kg, po by rapid equilibrium dialysis method
# Type: ADME, organism-based
# Conditions: in vivo
row,fCmax,Compound
1,< 0.09 nM,Oc1cccc([C@H]2CCCN(C[C@H]3COc4ccccc4O3)C2)c1

# Biological target: T2, Alpha-2C adrenergic receptor (Homo sapiens) (UniProt P18825)
# T2 sequence (whole entry): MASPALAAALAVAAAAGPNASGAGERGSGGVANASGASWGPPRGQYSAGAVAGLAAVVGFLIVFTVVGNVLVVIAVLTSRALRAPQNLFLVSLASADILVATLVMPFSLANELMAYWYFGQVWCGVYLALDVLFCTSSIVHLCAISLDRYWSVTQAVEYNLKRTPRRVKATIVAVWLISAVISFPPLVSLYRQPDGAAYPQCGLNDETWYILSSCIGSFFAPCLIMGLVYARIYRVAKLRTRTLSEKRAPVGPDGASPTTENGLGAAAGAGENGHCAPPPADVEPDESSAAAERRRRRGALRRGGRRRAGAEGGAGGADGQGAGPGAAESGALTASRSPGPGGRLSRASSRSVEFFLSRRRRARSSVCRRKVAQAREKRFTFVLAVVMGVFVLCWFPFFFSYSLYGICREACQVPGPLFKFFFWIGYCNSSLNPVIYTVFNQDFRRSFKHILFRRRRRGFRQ
# Experiment: Antagonist activity at alpha2c-adrenoceptor (unknown origin) assessed as reduction in adrenaline-induced response by measuring equilibrium binding constant
# Conditions: filed as antagonist
row,Kb,Compound
1,108 nM,CN1CCN(c2nsnc2N2CCN(C[C@H]3COc4ccccc4O3)CC2)C1=O
2,0.03 nM,COCc1cccnc1N1CCN(C[C@H]2COc3ccccc3O2)CC1 [ORM-13070]
3,0.01 nM,c1ccc2c(c1)OC[C@H](CN1CCN(c3nsnc3Nc3ccncn3)CC1)O2
4,0.01 nM,O=C1CCCN1c1cccnc1N1CCN(C[C@H]2COc3ccccc3O2)CC1
5,0.04 nM,CC1CCN(c2nsnc2N2CCN(C[C@H]3COc4ccccc4O3)CC2)C1=O (some centres undefined)
6,0.076 nM,O=C1NCCN1c1nsnc1N1CCN(C[C@H]2COc3ccccc3O2)CC1

# Tested on: not listed separately
# Experiment: Unbound fraction in rat plasma at 1 mg/kg, po
# Type: ADME, organism-based
# Conditions: not given
row,fraction unbound,Compound
1,< 0.01,Oc1cccc([C@H]2CCCN(C[C@H]3COc4ccccc4O3)C2)c1

# Tested on: not listed separately
# Experiment: AUC (0 to 6 hrs) in rat plasma at 1 mg/kg, po
# Type: ADME, organism-based
# Design: dose 1 mg/kg, route po
# Conditions: not given
row,AUC(0-t),Compound
1,9 ng·h/mL,Oc1cccc([C@H]2CCCN(C[C@H]3COc4ccccc4O3)C2)c1
